Data published in patent publication US11753445B2, “Therapeutic peptides” (COHBAR, INC., priority 2016, dated 2023).
Peptide text beside a SMILES is read from it.

Test system: 3T3-L1 Adipocytes
Assay: Free fatty acid levels in cultured mouse 3T3-L1 adipocytes, isoproterenol stimulated (Example 2)
Type: cell-based
Details: test peptides 25 μM; isoproterenol 1 nM
Summary of the method: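 Release of free fatty acids, read at 540 nm, was stimulated with 1 nM isoproterenol for 3 h in mouse 3T3-L1 adipocytes (12–17 days of differentiation). Cells were pre-exposed to 25 μM peptide for 18–20 h plus 1 h, with peptide kept in during stimulation. Values are background-subtracted and normalised to isoproterenol alone.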

Molecule | Free Fatty Acid Levels in 3T3-L1 Adipocytes Expressed as a Percent of Isoproterenol Control: Percent of Control Value [%]
CC[C@H](C)[C@H](NC(=O)[C@H](Cc1ccc(O)cc1)NC(=O)CNC(=O)[C@@H](C)NC(=O)[C@H](CCC(=O)O)NC(=O)[C@H](CCC(N)=O)NC(=O)[C@H](Cc1c[nH]c2ccccc12)NC(=O)[C@H](CCCNC(=N)N)NC(=O)[C@H](CCSC)NC(C)=O)C(=O)N[C@@H](Cc1ccccc1)C(=O)N[C@@H](Cc1ccc(O)cc1)C(=O)N1CCC[C@H]1C(=O)N[C@@H](CCCNC(=N)N)C(=O)N[C@@H](CCCCN)C(=O)N[C@@H](CC(C)C)C(=O)N[C@@H](CCCNC(=N)N)C(N)=O [compound 157] (HELM PEPTIDE1{[ac].M.R.W.Q.E.[dA].G.Y.I.F.Y.P.R.K.L.R.[am]}$$$$V2.0) | 85.0
CC[C@H](C)[C@H](NC(=O)[C@@H](C)NC(=O)CNC(=O)[C@H](CCSC)NC(=O)[C@H](CCC(=O)O)NC(=O)[C@H](CCC(N)=O)NC(=O)[C@H](Cc1c[nH]c2ccccc12)NC(=O)[C@H](CCCNC(=N)N)NC(=O)[C@@H](N)CCSC)C(=O)N[C@@H](Cc1ccccc1)C(=O)N[C@@H](Cc1ccc(O)cc1)C(=O)N1CCC[C@H]1C(=O)N[C@@H](CCCNC(=N)N)C(=O)N[C@@H](CCCCN)C(=O)N[C@@H](CC(C)C)C(=O)N[C@@H](CCCNC(=N)N)C(=O)O [compound 143] (HELM PEPTIDE1{M.R.W.Q.E.M.G.[dA].I.F.Y.P.R.K.L.R}$$$$V2.0) | 64.5
H-MRWQEMGYEFYPRKLR-OH [compound 175] | 50.6
CC[C@H](C)[C@H](NC(=O)[C@H](Cc1ccc(O)cc1)NC(=O)CNC(=O)[C@H](CCSC)NC(=O)[C@H](CCC(=O)O)NC(=O)[C@H](CCC(N)=O)NC(=O)[C@H](Cc1c[nH]c2ccccc12)NC(=O)C(C)(C)NC(=O)[C@@H](N)CCSC)C(=O)N[C@@H](Cc1ccccc1)C(=O)N[C@@H](Cc1ccc(O)cc1)C(=O)N1CCC[C@H]1C(=O)N[C@@H](CCCNC(=N)N)C(=O)N[C@@H](CCCCN)C(=O)N[C@@H](CC(C)C)C(=O)N[C@@H](CCCNC(=N)N)C(N)=O [compound 119] (HELM PEPTIDE1{M.[Aib].W.Q.E.M.G.Y.I.F.Y.P.R.K.L.R.[am]}$$$$V2.0) | 89.2
H-MRWQEMGYIFYPRKER-OH [compound 181] | 58.9
Ac-MRWQEMGYIFYPRRLR-NH2 [compound 131] | 78.1
CC[C@H](C)[C@@H]1NC(=O)[C@H](Cc2ccc(O)cc2)NC(=O)CNC(=O)[C@@H](NC(=O)[C@H](CCC(=O)O)NC(=O)[C@H](CCC(N)=O)NC(=O)[C@H](Cc2c[nH]c3ccccc23)NC(=O)[C@H](CCCNC(=N)N)NC(=O)[C@@H](N)CCSC)CSSC[C@@H](C(=O)N[C@@H](CCCNC(=N)N)C(=O)N[C@@H](CCCCN)C(=O)N[C@@H](CC(C)C)C(=O)N[C@@H](CCCNC(=N)N)C(=O)O)NC(=O)[C@H](Cc2ccc(O)cc2)NC(=O)[C@H](Cc2ccccc2)NC1=O [compound 220] (HELM PEPTIDE1{M.R.W.Q.E.C.G.Y.I.F.Y.C.R.K.L.R}$PEPTIDE1,PEPTIDE1,6:R3-12:R3$$$V2.0) | 70.5
H-MRWQEMGYIEYPRKLR-OH [compound 176] | 57.0
CC[C@H](C)[C@H](NC(=O)[C@H](Cc1ccc(O)cc1)NC(=O)CNC(=O)[C@H](C)NC(=O)[C@H](CCC(=O)O)NC(=O)[C@H](CCC(N)=O)NC(=O)[C@H](Cc1c[nH]c2ccccc12)NC(=O)[C@H](CCCNC(=N)N)NC(=O)[C@@H](C)N)C(=O)N[C@@H](C)C(=O)N[C@@H](CCC(=O)O)C(=O)N1CCC[C@H]1C(=O)N[C@@H](CCCNC(=N)N)C(=O)N[C@@H](CCCCN)C(=O)N[C@@H](CC(C)C)C(=O)N[C@@H](C)C(=O)O [compound 245] (HELM PEPTIDE1{[dA].R.W.Q.E.A.G.Y.I.A.E.P.R.K.L.A}$$$$V2.0) | 78.1
